In patent US20100099676A1 (SHIONOGI & CO., LTD., priority 2006, published 2010) one finds IC50 data, which are given here for 19 molecules.

What all share (test): Enzyme inhibiting activity of MMPs, fluorogenic peptide substrate
Common to all, as to format: biochemical

One assay concerns the target T1, MMP-13 (Homo sapiens, UniProt P45452).
T1 construct: purchased Calbiochem (EMD/MERCK Biosciences)
Conditions: APMA-activated proenzyme; substrate MOCAc-Pro-Leu-Gly-Leu-A2Pr(DNP)-Ala-Arg-NH2, fluorescent intensity; read-out: IC50 MMP-13. A digest of the protocol: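 Pro-MMP-13 was activated with 1 mM APMA at 37° C for 2 h in 50 mM Tris-HCl pH 7.6, 0.3 M NaCl, 10 mM CaCl2, 0.005% Brij35. Activity was read by fluorescence using MOCAc-Pro-Leu-Gly-Leu-A2Pr(DNP)-Ala-Arg-NH2 substrate, with enzyme and inhibitor blank corrections. IC50 is the concentration giving 50% inhibition.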

The next assay deals with T2, MMP-2 (Homo sapiens, UniProt P08253).
T2 construct: purchased Calbiochem (EMD/MERCK Biosciences)
T2 sequence (P08253 110-660): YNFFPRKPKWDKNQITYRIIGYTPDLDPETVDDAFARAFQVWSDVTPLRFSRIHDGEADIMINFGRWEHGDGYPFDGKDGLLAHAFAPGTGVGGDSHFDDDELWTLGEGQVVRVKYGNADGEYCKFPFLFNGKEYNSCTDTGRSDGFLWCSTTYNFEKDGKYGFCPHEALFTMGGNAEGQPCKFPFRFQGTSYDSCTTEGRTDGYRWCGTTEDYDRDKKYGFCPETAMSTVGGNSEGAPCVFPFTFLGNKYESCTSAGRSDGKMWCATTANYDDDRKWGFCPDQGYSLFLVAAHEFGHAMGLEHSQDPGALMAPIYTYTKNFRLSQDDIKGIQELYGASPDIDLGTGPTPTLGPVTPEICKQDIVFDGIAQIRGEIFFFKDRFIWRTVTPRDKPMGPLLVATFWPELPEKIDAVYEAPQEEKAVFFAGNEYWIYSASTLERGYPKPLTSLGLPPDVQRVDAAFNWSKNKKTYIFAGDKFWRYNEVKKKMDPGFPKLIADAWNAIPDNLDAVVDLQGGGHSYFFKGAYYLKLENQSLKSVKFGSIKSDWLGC
Conditions: substrate MOCAc-Pro-Leu-Gly-Leu-A2Pr(DNP)-Ala-Arg-NH2, fluorescent intensity. A digest of the protocol: (§1)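 Recombinant human enzymes with the fluorogenic substrate MOCAc-Pro-Leu-Gly-Leu-A2Pr(DNP)-Ala-Arg-NH2. Fluorescence was read for enzyme+substrate±inhibitor and substrate±inhibitor blanks.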

The target of the next assay is T3, MMP-9 (Homo sapiens, UniProt P14780).
T3 construct: purchased Calbiochem (EMD/MERCK Biosciences)
Conditions: substrate MOCAc-Pro-Leu-Gly-Leu-A2Pr(DNP)-Ala-Arg-NH2, fluorescent intensity. Summed up: as §1

One may read the IC50 as the concentration needed to halve the response being measured.

Where only a bound is given, the exact number is not on record here.

T3 sequence (P14780 94-707): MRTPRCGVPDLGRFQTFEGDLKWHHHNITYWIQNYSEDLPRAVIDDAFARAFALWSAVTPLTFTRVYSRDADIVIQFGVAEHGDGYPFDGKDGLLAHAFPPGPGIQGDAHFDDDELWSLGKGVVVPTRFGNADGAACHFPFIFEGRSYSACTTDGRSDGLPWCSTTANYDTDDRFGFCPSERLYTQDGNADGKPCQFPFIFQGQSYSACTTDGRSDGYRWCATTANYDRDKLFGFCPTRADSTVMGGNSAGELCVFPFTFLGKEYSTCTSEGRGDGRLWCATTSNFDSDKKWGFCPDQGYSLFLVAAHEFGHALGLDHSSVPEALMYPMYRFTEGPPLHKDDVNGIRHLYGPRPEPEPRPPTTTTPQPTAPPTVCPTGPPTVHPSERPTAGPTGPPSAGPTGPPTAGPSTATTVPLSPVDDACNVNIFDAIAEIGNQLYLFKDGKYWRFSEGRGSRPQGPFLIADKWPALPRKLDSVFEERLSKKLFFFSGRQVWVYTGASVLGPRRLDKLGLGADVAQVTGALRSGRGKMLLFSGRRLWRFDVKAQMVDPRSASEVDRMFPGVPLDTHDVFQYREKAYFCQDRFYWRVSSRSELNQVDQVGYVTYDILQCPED

With `CC(C)[C@@H](NS(=O)(=O)N1CCN(c2ccc(C#Cc3ccnc(C(=O)NCc4ccc(OC(F)(F)F)cc4)c3)cc2)CC1)C(=O)O` [III-196, (R)-3-methyl-2-(4-{4-[2-(4-trifluoromethoxybenzylcarbamoyl)-pyridin-4-ylethynyl]-phenyl}-piperazine-1-sulfonylamino)-butanoic acid], the IC50 is 0.02 µM at MMP-13, above 10 µM against MMP-2 and above 10 µM against MMP-9.
For `CC(C)COc1ccc(C#Cc2ccc(N3CCN(S(=O)(=O)N[C@@H](C(=O)O)C(C)C)CC3)cc2)cc1C(=O)NCc1ccncc1` [Compound V-5, (R)-2-[4-(4-{4-isobutoxy3-[(pyridin-4-ylmethyl)carbamoyl]-phenylethynyl}-phenyl)-piperazine-1-sulfonylamino]-3-methylbutanoic acid], the IC50 at MMP-13 was 0.018 µM; against MMP-2, 1 to 10 µM; at MMP-9, above 10 µM.
Take `CC(C)[C@@H](NS(=O)(=O)N1CCN(c2ccc(C#Cc3ccnc(C(=O)NCc4ccc(C(=O)NCC#N)cc4)c3)cc2)CC1)C(=O)O` [Compound V-30, (R)-2-[4-(4-{2-[4-(cyanomethylcarbamoyl)-benzylcarbamoyl]-pyridin-4-ylethynyl}-phenyl)-piperazine-1-sulfonylamino]-3-methylbutanoic acid]: the IC50 at MMP-13 is 0.001 µM; against MMP-2, 1 to 10 µM; on MMP-9, above 10 µM.
For `C[C@@H](NS(=O)(=O)N1CCN(c2ccc(C#Cc3ccc4c(c3)c(/C=C/C#N)cn4C)cc2)CC1)C(=O)O` [Compound I-114, (R)-2-(4-{4-[3-((E)-2-cyanovinyl)-1-methyl-1H-indol-5-ylethynyl]-phenyl}-piperazine-1-sulfonylamino)-proponic acid] the same measures were 0.011 µM, 1 to 10 µM and above 10 µM.
The matching figures for `C[C@@H](NS(=O)(=O)N1CCN(c2ccc(C#Cc3ccc4c(c3)C(=O)N(Cc3ccccc3)CCN4C)cc2)CC1)C(=O)O` [Compound V-52, (R)-2-{4-[4-(4-benzyl1-methyl-5-oxo-2,3,4,5-tetrahydro1H-benzo[e][1,4]diazepin-7-ylethynyl)-phenyl]-piperazine-1-sulfonylamino}-proponic acid]: 0.012 µM, 1 to 10 µM and 1 to 10 µM.
The matching figures for `C[C@@H](NS(=O)(=O)N1CCN(c2ccc(C#Cc3ccc4c(c3)C(c3ccco3)=CCC4)cc2)CC1)C(=O)O` [Compound I-112, (R)-2-{4-[4-(8-furan-2-yl-5-6-dihydronaphthalen-2-ylethynyl)-phenyl]-piperazine-1-sulfonylamino}-proponic acid]: 0.062 µM, above 10 µM and above 10 µM.
On to `CCCCC(=O)c1cn(C)c2ccc(C#Cc3ccc(N4CCN(S(=O)(=O)N[C@H](C)C(=O)O)CC4)cc3)cc12` [III-45, (R)-2-{4-[4-(1-methyl-3-pentanoyl-1H-indol-5-ylethynyl)-phenyl]-piperazine-1-sulfonylamino}-proponic acid], for which the results for the IC50 on MMP-13, against MMP-2 and against MMP-9 were 0.013 µM, above 10 µM and above 10 µM, respectively.
With `C[C@@H](NS(=O)(=O)N1CCN(c2ccc(C#Cc3ccc4ccn(Cc5ccccc5)c(=O)c4c3)cc2)CC1)C(=O)O` [III-5, (R)-2-{4-[4-(2-benzyl-1-oxo-1,2-dihydroisoquinolin-7-ylethynyl)-phenyl]-piperazine-1-sulfonylamino}-proponic acid], the IC50 at MMP-13 was 0.005 µM; against MMP-2 it was 1 to 10 µM; against MMP-9, above 10 µM.
For `Cc1cccc(CNC(=O)c2cc(C#Cc3ccc(N4CCN(S(=O)(=O)N[C@@H](C(=O)O)C(C)C)CC4)cc3)ccn2)c1` [III-186, (R)-3-methyl-2-(4-{4-[2-(3-methylbenzylcarbamoyl)-pyridin-4-ylethynyl]-phenyl}-piperazine-1-sulfonylamino)-butanoic acid] the same measures were 0.012 µM, 1 to 10 µM and above 10 µM.
The matching figures for `B.CC(C)[C@@H](NS(=O)(=O)N1CCN(c2ccc(C#Cc3ccnc(C(=O)NCc4ccc(CN(C)C)cc4)c3)cc2)CC1)C(=O)O` [III-153, (R)-2-(4-{4-[2-(4-dimethylaminomethylbenzylcarbamoyl)-pyridin-4-ylethynyl]-phenyl}-piperazine-1-sulfonylamino)-3-methylbutanoic acid borane complex]: 0.004 µM, 1 to 10 µM and above 10 µM.
For `CC(C)[C@@H](NS(=O)(=O)N1CCN(c2ccc(C#Cc3ccnc(C(=O)NCc4ccc(F)c(Cl)c4)c3)cc2)CC1)C(=O)O` [III-179, (R)-2-(4-{4-[2-(3-chloro4-fluorobenzylcarbamoyl)-pyridin-4-ylethynyl]-phenyl}-piperazine-1-sulfonylamino)-3-methylbutanoic acid] the same measures were 0.012 µM, above 10 µM and above 10 µM.
`COc1ccc(CNC(=O)c2cc(C#Cc3ccc(N4CCN(S(=O)(=O)NC(C)(C)C(=O)O)CC4)cc3)ccn2)cc1` [Compound V-7, 2-(4-{4-[2-(4-methoxybenzylcarbamoyl)-pyridin-4-ylethynyl]-phenyl}-piperazine-1-sulfonylamino)-2-methylproponic acid]: the IC50 at MMP-13 is 0.012 µM; on MMP-2, 1 to 10 µM; at MMP-9, above 10 µM.
`C[C@@H](NS(=O)(=O)N1CCN(c2ccc(C#Cc3nc(-c4cccc(OCc5ccc(S(C)(=O)=O)cc5)c4)cs3)cc2)CC1)C(=O)O` [Compound V-20, (R)-2-[4-(4-{4-[3-(4-methanesulfonylbenzyloxy)-phenyl]-thiazol-2-ylethynyl}-phenyl)-piperazine-1-sulfonylamino]-proponic acid]: the IC50 was 0.001 µM on MMP-13, 1 to 10 µM on MMP-2 and above 10 µM at MMP-9.
For `C[C@@H](NS(=O)(=O)N1CCN(c2ccc(C#Cc3cccc(-c4ncc(-c5ccc(F)cc5)o4)c3)cc2)CC1)C(=O)O` [III-12, (R)-2-[4-(4-{3-[5-(4-fluorophenyl)-oxazol-2-yl]-phenylethynyl}-phenyl)-piperazine-1-sulfonylamino]-proponic acid] the same measures were 0.004 µM, above 10 µM and above 10 µM.
The matching figures for `CCOc1ccc(C#Cc2ccc(N3CCN(S(=O)(=O)N[C@H](C)C(=O)O)CC3)cc2)cc1-c1ncc(CC)o1` [Compound V-25, (R)-2-(4-{4-[4-ethoxy-3-(5-ethyloxazol-2-yl)-phenylethynyl]-phenyl}-piperazine-1-sulfonylamino)-proponic acid]: 0.009 µM, 1 to 10 µM and above 10 µM.
For `CC(C)Cc1coc(-c2cc(C#Cc3ccc(N4CCN(S(=O)(=O)N[C@@H](C(=O)O)C(C)C)CC4)cc3)ccn2)n1` [Compound V-8, (R)-2-(4-{4-[2-(4-isobutyloxazol-2-yl)-pyridin-4-ylethynyl]-phenyl}-piperazine-1-sulfonylamino)-3-methylbutanoic acid] the same measures were 0.007 µM, 1 to 10 µM and above 10 µM.
With `CC(C)[C@@H](NS(=O)(=O)N1CCN(c2ccc(C#Cc3nc(-c4cccc(OCc5ccc(C(N)=O)cc5)c4)cs3)cc2)CC1)C(=O)O` [Compound V-78, (R)-2-[4-(4-{4-[3-(4-carbamoylbenzyloxy)-phenyl]-thiazol-2-ylethynyl}-phenyl)-piperazine-1-sulfonylamino]-3-methylbutanoic acid], the concentration for half-maximal inhibition (IC50) on MMP-13 is 0.004 µM; against MMP-2, above 10 µM; against MMP-9, above 10 µM.
Take `CCC(=O)c1cccc2ccc(C#Cc3ccc(N4CCN(S(=O)(=O)N[C@@H](C(=O)O)C(C)C)CC4)cc3)cc12` [III-87, (R)-2-{4-[4-(8-propionylnaphthalen-2-ylethynyl)-phenyl]-piperazine-1-sulfonylamino}-3-methylbutanoic acid]: the figures for the IC50 on MMP-13, against MMP-2 and on MMP-9 were 0.025 µM, above 10 µM and above 10 µM, respectively.
Consider `CC(C)[C@@H](NS(=O)(=O)N1CCN(c2ccc(C#Cc3ccc(OCCOC(C)(C)C)c(C(=O)NCC#N)c3)cc2)CC1)C(=O)O` [III-138, (R)-2-(4-{4-[4-(2-tert-butoxyethoxy)-3-(cyanomethylcarbamoyl)-phenylethynyl]-phenyl}-piperazine-1-sulfonylamino)-3-methylbutanoic acid], for which the IC50 at MMP-13 is 0.018 µM; on MMP-2, 1 to 10 µM; against MMP-9 it was above 10 µM.
